In test [1] the target is T1, Heat shock factor protein 1 (Mus musculus, UniProt P38532).
T1 sequence (P38532 whole entry): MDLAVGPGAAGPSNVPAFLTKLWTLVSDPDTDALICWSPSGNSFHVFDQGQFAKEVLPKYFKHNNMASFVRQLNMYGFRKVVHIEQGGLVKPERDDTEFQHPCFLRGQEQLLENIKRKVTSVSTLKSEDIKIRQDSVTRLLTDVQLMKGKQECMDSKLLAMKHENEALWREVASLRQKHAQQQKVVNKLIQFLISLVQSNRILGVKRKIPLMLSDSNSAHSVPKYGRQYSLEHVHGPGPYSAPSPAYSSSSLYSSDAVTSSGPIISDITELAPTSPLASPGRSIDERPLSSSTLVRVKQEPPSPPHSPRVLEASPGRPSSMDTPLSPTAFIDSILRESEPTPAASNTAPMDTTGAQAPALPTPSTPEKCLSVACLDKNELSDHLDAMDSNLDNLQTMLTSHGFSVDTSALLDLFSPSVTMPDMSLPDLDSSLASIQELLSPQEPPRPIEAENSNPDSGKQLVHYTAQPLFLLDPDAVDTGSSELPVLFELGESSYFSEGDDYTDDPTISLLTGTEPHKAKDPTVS
The test is described as follows: inhibition of MG132-induced HSE-luciferase signal, confirmation, cell-based, NIH3T3, luminescence, dose retest (AID 2382).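 Also: NIH3T3 fibroblasts with HSF1-driven luciferase reporter stressed by proteasome inhibitor MG132; luminescence from HSF1-driven luciferase expression after 8 hours of MG132 stress.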 It is filed as functional.

In test [2] the target is T2, Replicative DNA helicase DnaB (Mycobacterium tuberculosis, UniProt P9WMR3).
T2 sequence (P9WMR3 whole entry): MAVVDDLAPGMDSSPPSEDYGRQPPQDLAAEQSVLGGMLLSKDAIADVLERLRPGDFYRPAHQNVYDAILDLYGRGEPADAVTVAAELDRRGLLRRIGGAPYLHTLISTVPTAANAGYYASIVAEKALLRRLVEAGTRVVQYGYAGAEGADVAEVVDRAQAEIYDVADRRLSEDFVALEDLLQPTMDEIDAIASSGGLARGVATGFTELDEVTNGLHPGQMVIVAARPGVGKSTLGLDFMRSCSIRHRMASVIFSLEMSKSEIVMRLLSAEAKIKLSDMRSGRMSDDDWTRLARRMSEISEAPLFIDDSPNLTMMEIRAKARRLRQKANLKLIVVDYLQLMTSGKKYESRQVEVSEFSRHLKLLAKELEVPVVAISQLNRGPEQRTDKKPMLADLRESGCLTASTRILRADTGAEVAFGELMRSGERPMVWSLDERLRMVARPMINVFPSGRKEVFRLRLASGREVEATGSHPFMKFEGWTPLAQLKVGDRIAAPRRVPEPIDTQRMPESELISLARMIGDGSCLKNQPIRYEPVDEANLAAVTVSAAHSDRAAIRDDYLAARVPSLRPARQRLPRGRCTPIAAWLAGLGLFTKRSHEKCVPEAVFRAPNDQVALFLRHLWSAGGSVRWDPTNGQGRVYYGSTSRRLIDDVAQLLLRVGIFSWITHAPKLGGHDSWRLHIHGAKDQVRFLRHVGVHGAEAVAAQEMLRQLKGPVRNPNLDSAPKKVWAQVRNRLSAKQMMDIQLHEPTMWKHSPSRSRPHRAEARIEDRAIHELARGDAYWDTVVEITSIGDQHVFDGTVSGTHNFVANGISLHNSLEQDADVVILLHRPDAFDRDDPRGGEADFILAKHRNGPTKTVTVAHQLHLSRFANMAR
The test is described as follows: DnaB intein splicing inhibitors, dose response, biochemical, cell-free fluorescence (AID 449749). It is filed as functional.

The next test has as its target T3, Protein RecA (Mycobacterium tuberculosis, UniProt P9WHJ3).
T3 sequence (P9WHJ3 whole entry): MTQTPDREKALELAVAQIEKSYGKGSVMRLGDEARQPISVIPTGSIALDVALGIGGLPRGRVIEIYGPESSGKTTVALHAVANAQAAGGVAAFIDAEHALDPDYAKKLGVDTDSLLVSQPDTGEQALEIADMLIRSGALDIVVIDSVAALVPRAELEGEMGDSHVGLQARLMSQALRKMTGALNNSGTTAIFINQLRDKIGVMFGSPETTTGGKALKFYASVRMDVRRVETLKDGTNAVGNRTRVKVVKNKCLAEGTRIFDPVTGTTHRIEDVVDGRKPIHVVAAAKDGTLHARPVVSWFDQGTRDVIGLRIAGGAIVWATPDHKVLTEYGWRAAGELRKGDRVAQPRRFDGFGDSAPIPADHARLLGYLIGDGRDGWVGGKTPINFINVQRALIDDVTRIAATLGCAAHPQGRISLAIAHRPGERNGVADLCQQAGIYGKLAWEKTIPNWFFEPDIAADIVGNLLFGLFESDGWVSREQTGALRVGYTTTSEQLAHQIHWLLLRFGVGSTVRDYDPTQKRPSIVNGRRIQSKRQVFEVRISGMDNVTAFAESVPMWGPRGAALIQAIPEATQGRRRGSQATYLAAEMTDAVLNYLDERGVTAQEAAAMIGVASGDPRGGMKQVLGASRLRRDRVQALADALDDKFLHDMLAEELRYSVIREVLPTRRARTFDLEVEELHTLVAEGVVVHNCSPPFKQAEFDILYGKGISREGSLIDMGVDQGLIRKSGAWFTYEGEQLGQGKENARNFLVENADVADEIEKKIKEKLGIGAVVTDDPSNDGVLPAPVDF
The test is described as follows: Fluorescence Cell-Free Homogeneous Dose Retest to Identify Inhibitors of RecA-Intein Splicing Activity. [Related pubchem assays (depositor defined):AID2097, AID2223, AID489010, AID492950]. Format: functional.

Test [3] has as its target FAD-linked sulfhydryl oxidase ALR (Homo sapiens, UniProt P55789). The test is described as follows: inhibitors of human ALR sulfhydryl oxidase, dose response, biochemical, H2O2 detection, luminescence, cherry-pick (AID 493248).
The nature of test [4]: NIH-3T3 fibroblast cytotoxicity, dose response, cytotoxicity control, cell-based, fluorescence, Alamar Blue, secondary assay (AID 2327).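 Also: NIH-3T3 mouse fibroblasts cultured with fluconazole at 8 µg/mL.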 It is filed as functional.
Test [5] is described as follows: C. albicans growth with fluconazole, confirmation, fluorescence, retest (AID 2467). It is filed as functional, cell-based.
Another test concerns the target T4, Cytochrome P450 1A2 (Homo sapiens, UniProt P05177).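 Also: PubChem cytochrome P450 panel assay, CYP1A2 panel member.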
T4 sequence (P05177 whole entry): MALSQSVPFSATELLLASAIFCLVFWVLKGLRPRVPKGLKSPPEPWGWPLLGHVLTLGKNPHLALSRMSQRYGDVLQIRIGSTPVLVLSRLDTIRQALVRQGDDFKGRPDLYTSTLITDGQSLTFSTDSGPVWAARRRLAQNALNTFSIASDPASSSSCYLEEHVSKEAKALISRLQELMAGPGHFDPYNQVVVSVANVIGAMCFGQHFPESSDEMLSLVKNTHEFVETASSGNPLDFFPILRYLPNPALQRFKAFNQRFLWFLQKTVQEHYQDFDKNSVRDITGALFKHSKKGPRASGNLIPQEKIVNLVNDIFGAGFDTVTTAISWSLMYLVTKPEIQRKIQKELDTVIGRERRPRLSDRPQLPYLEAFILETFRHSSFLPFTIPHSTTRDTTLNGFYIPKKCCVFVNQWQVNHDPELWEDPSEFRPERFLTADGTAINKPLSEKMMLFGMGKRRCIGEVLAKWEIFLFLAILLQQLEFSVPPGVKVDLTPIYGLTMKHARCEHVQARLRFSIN

For a further test, the target named is Cytochrome P450 3A4 (Homo sapiens, UniProt P08684).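 Also: CYP3A4 tested as one member of a cytochrome P450 panel screen.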
A further test addresses Cytochrome P450 2C9 (Homo sapiens, UniProt P11712).
Test [6] in a line: Shn3 3'UTR reporter inhibitors, dose response, cell-based, Clone20 osteoblasts, firefly luciferase, cherry-picked (AID 624132).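 Also: firefly luciferase luminescence from reporter carrying the Shn3 3'UTR in osteoblasts.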 It is filed as functional.

Calls of active or inactive are those of the source.

Chain of FAD-linked sulfhydryl oxidase ALR (P55789 whole entry): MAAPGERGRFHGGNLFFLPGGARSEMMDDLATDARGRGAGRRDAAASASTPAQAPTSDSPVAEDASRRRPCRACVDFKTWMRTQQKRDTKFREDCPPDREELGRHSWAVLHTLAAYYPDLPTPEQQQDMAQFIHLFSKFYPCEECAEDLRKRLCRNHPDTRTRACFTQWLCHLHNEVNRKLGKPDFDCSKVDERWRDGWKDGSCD
Chain of Cytochrome P450 2C9 (P11712 whole entry): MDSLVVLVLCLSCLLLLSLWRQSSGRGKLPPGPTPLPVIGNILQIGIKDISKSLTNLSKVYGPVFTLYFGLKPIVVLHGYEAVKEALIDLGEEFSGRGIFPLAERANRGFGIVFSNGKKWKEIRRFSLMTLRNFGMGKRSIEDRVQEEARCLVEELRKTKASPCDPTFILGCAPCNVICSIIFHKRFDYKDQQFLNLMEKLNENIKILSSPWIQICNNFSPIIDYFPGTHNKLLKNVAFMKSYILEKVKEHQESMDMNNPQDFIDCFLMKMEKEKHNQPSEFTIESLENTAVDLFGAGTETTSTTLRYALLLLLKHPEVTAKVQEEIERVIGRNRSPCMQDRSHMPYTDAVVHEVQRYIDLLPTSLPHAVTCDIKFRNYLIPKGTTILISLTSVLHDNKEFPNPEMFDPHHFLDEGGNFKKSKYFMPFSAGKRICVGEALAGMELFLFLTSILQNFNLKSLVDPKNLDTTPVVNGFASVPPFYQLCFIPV
Chain of Cytochrome P450 3A4 (P08684 whole entry): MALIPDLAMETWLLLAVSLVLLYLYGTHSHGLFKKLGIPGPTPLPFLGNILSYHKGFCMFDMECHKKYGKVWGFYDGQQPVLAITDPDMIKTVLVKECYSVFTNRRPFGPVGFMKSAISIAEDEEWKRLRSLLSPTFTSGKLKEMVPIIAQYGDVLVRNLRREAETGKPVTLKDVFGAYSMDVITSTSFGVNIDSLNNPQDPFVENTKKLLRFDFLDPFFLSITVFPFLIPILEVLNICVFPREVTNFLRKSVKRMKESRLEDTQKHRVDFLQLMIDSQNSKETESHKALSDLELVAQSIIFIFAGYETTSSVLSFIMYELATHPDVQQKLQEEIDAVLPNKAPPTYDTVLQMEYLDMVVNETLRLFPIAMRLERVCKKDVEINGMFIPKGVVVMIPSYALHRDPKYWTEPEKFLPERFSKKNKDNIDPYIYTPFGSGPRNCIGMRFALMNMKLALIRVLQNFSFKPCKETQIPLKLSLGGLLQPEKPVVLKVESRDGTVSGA

As for `Cc1ccc(NC(=O)CCN2C(=O)C3CCCCC3C2=O)cc1[N+](=O)[O-]` (stereo not given), in test [1], the EC50 (commonly the concentration that produces a half-maximal response) was > 195 µM (not active). On to `COc1nc(NC(C)C)nc(N(C#N)CN2C(=O)c3ccccc3S2(=O)=O)n1`, for which, in test [2], the AC50 (usually the midpoint of the concentration-response curve, whichever way the signal moves) is 24.4 µM (active). Besides, the EC50 on Protein RecA was 26.4 µM (inconclusive). For the compound `Cc1ccc(S(=O)(=O)c2ccc(Oc3ccccc3)cc2)cc1`, the concentration for a half-maximal effect (EC50) in [1] is 21.5 µM (active).

`N=C(NC(=O)c1ccc(Cl)cc1)Nc1nc2ccccc2o1`: in [1], the EC50 was > 195 µM (not active).

As for `CCS(=O)(=O)c1nc(S(=O)(=O)c2ccc(C)cc2)c(N2CCC(C)CC2)s1`, in test [1], the EC50 is given as > 195 µM (not active). On to `O=C(CNC1=NCCC1)c1ccc(Cl)cc1`, for which, in test [2], the AC50 was 127 µM (active). Also, the EC50 at Protein RecA is 23.1 µM (active).

Regarding `O=C(CN1CCN(c2ccccc2O)CC1)Nc1cccnc1Cl`, in [3], the half-maximal activity concentration (AC50) is 2.17 µM (active). Take `Cc1ccc(NNC(=O)c2ccno2)cc1C`: the EC50 in test [4] is > 160 µM (inactive); in test [5], 0.763 µM (active). Further, in test [3], the half-maximal activity concentration (AC50) was 0.439 µM (active). For the compound `CN(CC(=O)Nc1ccccc1Br)C(=O)c1cccn1C`, the EC50 in test [1] was > 195 µM (not active). Consider `CC(=O)Nc1ccc(S(=O)(=O)NC(C)C(=O)NCCc2ccc(F)cc2)cc1` (stereo not given), for which the AC50 in test [3] is 0.031 µM (active).

In the case of `CC(=O)N1CC[n+]2c(-c3ccc(Cl)cc3)csc21`, the concentration at half-maximal activity (AC50) in test [3] was 1.88 µM (active). For `CN(C)NC(=O)c1ccsc1NC(=O)c1ccc(S(=O)(=O)N2CCCC2)cc1`, in test [3], the AC50 was 0.835 µM (active). Same read-out and setting: in the case of `C/C(=C\c1ccc(N)cc1)c1nc2ccccc2[nH]1` it was 0.321 µM (active). Take `COc1cccc(NC(=S)N(CCC(C)C)C2CCN(C(C)=O)CC2)c1`: the EC50 in test [1] is listed as > 195 µM (not active).

For the compound `COc1ccccc1/C=C/C1(C(=O)NC2CCCC2)CC(=O)N1c1ccc(C)cc1` (stereo not given), the concentration at half-maximal activity (AC50) in [2] is 9.29 µM (active). For the same compound, at Protein RecA, the EC50 is 8.52 µM (active).

As for `N[C@@H](CC1=CS(=O)(=O)c2ccc(Cl)cc21)C(=O)O`, the figures for the half-maximal activity concentration (AC50) at Cytochrome P450 1A2, at Cytochrome P450 3A4 and at Cytochrome P450 2C9 were 0.398 µM (inconclusive), 5.01 µM (inconclusive) and 6.31 µM (inconclusive), respectively. `COc1ccc2nc(O)c(CN(Cc3cccs3)S(=O)(=O)c3c(C)ccc4nsnc34)cc2c1`: the EC50 in test [1] is 0.503 µM (active). As for `Cc1cc(N=Nc2ccc(Cl)cc2)cc(CN2CCCC2)c1O`, the concentration for a half-maximal effect (EC50) in test [1] was > 195 µM (not active). On to `CC(=O)c1cccc(NC(=O)CSc2ncc(C(=O)Nc3ccccc3)c(=O)n2C)c1`, for which the concentration at half-maximal activity (AC50) in test [2] is > 380 µM (inconclusive). For the same compound, the EC50 at Protein RecA is 1.21 µM (active). In the same order, the values of `O=C(Cc1ccccc1F)Nc1nc2ccccc2[nH]1` are 0.0489 µM (inconclusive) and > 380 µM (inconclusive). Consider `CCOC(=O)C(C)c1ccc2cc(OC)ccc2c1` (stereo not given), for which the EC50 in test [1] is > 195 µM (not active).

Consider `CC(C)NS(=O)(=O)c1ccc(OCC(=O)N2CCCC2)c(Cl)c1`, for which the EC50 in test [1] was > 195 µM (not active). `CN(C)c1ccc(NC(=O)CN2CCc3ccccc3C2)cc1`: in [3], the concentration at half-maximal activity (AC50) is 2.23 µM (active). Take `Fc1ccc(Sc2nc(-c3ccccc3)nnc2C(F)(F)F)cc1`: the concentration at half-maximal activity (AC50) in test [2] is 1.45 µM (active). Also, on Protein RecA, the concentration giving a half-maximal response (EC50) is 0.66 µM (active).

Turning to `COc1ccc(C(=O)Nc2ccncc2)cc1[N+](=O)[O-]`, the AC50 in test [2] was > 380 µM (inactive). Moreover, on Protein RecA, the EC50 is > 380 µM (inactive). As to `O=C(c1ccc2c(c1)OCO2)N1CCC2(CC1)OCCO2`, in test [1], the EC50 is reported as > 195 µM (not active). Regarding `CCSc1nnc(NC(=O)c2cccc(S(=O)(=O)N(C)c3ccccc3)c2)s1`, the half-maximal activity concentration (AC50) in test [3] is 2.75 µM (active). In the case of `CC(NS(C)(=O)=O)C(c1cccs1)N1CCN(c2ccccc2)CC1` (stereo not given), the AC50 in test [3] is 2.93 µM (active). For `Cc1ccc(C(c2c(C)n[nH]c2O)c2c(C)n[nH]c2O)cc1[N+](=O)[O-]`, the concentration at half-maximal activity (AC50) in test [2] was 0.442 µM (active). Moreover, the EC50 on Protein RecA was 0.195 µM (active).

For the compound `O=C1CCc2cccc(O)c2N1`, the AC50 in test [6] was 12.2 µM (active). Take `CCc1n[nH]c2c1C(c1ccsc1)C(C#N)=C(N)O2` (stereo not given): in test [2], the half-maximal activity concentration (AC50) was 14.5 µM (active). The EC50 on Protein RecA was 9.87 µM (active). In the case of `CCC(=O)Oc1oc(-c2ccccc2)nc1/C=N/c1ccccc1OC`, the EC50 in [1] was 10.3 µM (active).

Source of the values: ChEMBL document CHEMBL1201862, “PubChem BioAssay data set” (2004).
